Experimental data published in patent US10300065B2, “Method of treating or prevention of atherothrombotic events in patients with history of myocardial infarction” (ASTRAZENECA AB, priority 2015, dated 2019).
Like-named read-outs stand apart in the source and are kept apart here.

Tests used:
[1] = cited from earlier work
[2] = tested on: platelets; settings: for most patients; cited from earlier work
[3] = tested on: platelets; assay: VerifyNow P2Y12 assay (platelet reactivity, PRU), platelet function substudy; assay type: cell-based, human; settings: for VerifyNow % inhibition Post dose / VerifyNow PRU Post dose: 2 h post dose; for VerifyNow % inhibition Post dose / VerifyNow PRU Post dose / VerifyNow % inhibition Pre dose / VerifyNow PRU Pre dose: mean (SD)
Description: (§1) The pharmacokinetics (PK) and pharmacodynamics of the 60 mg bid dose had not previously been studied. […] 180 patients who had received >4 weeks of study medication had blood sampling in the morning pre-maintenance dose and again 2 h post-dose. All patients were receiving aspirin. […] Well-known VerifyNow® P2Y12 assay and light transmittance aggregometry (LTA; ADP 20 uM) were performed. Groups were compared using Kruskal-Wallis test with significance attached to P<0.01 to allow for multiple group comparisons.

[4] = clinical; assay type: in vivo; settings: for concentration at 2 h: human, plasma, oral, post dose (2 h)
Description: as §1

[5] = tested on: platelets; assay: Light transmittance aggregometry (LTA; ADP 20 uM), platelet function substudy; assay type: cell-based, human; settings: for Emax: Homo sapiens, Platelet, mean (SD)
Description: as §1

[6] = tested on: platelets; settings: either ticagrelor group
[7] = tested on: thromboxane B2; settings: either ticagrelor group

For `CCCSc1nc(N[C@@H]2C[C@H]2c2ccc(F)c(F)c2)c2nnn([C@@H]3C[C@H](OCCO)[C@@H](O)[C@H]3O)c2n1` [Ticagrelor, (1S,2S,3R,5S)-3-[7-{[(1R,2S)-2-(3,4-difluorophenyl)cyclopropyl]amino}-5-(propylthio)-3H-[1,2,3]-triazolo[4,5-d]pyrimidin-3-yl]-5-(2-hydroxyethoxy)cyclopentane-1,2-diol], the “increase in AUC” value ([1]; high-fat meal) is given as 21%, the mean absolute bioavailability ([1]; human, in vivo) is given as “about 36%” and the “steady state volume of distribution” value ([1]; human, in vivo) is given as 88 L. For the same compound, the median tmax ([1]; in patients after administration of ticagrelor) was 1.5 h, the “onset of antiplatelet effect” value [2] was no more than 2 h and the “High platelet reactivity assessed by VerifyNow (PRU >208)” value ([3]; 60 mg, post dose) was “absent”. For the same compound, the “High platelet reactivity assessed by VerifyNow (PRU >208), patients” value ([3]; 60 mg, pre-dose) was 3.5%, the “VerifyNow % inhibition Post dose” value ([3]; ticagrelor 60 mg bid) was 90 (13) % and the “VerifyNow PRU Post dose” value ([3]; ticagrelor 60 mg bid) was 29 (39) PRU. The “VerifyNow % inhibition Pre dose” value ([3]; ticagrelor 60 mg bid) was 78 (20) %, the “VerifyNow PRU Pre dose” value ([3]; ticagrelor 60 mg bid) was 59 (63) PRU and the “VerifyNow % inhibition Post dose” value ([3]; ticagrelor 90 mg bid) was 92 (8) %. The “VerifyNow PRU Post dose” value ([3]; ticagrelor 90 mg bid) was 20 (19) PRU, the “VerifyNow % inhibition Pre dose” value ([3]; ticagrelor 90 mg bid) was 83 (14) % and the “VerifyNow PRU Pre dose” value ([3]; ticagrelor 90 mg bid) was 47 (43) PRU. For the same compound, the “plasma ticagrelor levels lower with 60 mg vs 90 mg” value ([4]; 60 mg vs 90 mg) was “approximately ⅓”, the concentration at 2 h ([4]; 60 mg bid) was 448 ng/mL and the concentration at 2 h ([4]; 90 mg bid) was 717 ng/mL. The “Platelet reactivity pre- and post-dose as measured by LTA” value ([5]; 90 mg vs 60 mg) was “numerically but not significantly lower with 90 mg than 60 mg”, the Emax ([5]; 2 h, ticagrelor 60 mg bid, 2 h post dose, read-out: LTA Max response (maximum % aggregation response) Post dose) was 33% and the Emax ([5]; 2 h, ticagrelor 90 mg bid, 2 h post dose, read-out: LTA Max response (maximum % aggregation response) Post dose) was 29%. The Emax ([5]; ticagrelor 60 mg bid, pre dose, read-out: LTA Max response (maximum % aggregation response) Pre dose) was 39%, the Emax ([5]; ticagrelor 90 mg bid, pre dose, read-out: LTA Max response (maximum % aggregation response) Pre dose) was 36% and the “VerifyNow Aspirin assay results vs placebo group” value [6] was “no differences”. The “serum thromboxane B2 levels vs placebo group” value [7] was “no differences”.
